Several values for one entry are separate records, joined by “and”; a condition that tells them apart may be missing. Equal values may be shown once.
Experiments:
[1] = biological target: T1, KRAS^G12V (Homo sapiens, UniProt P01116+P62937, G12V); assay: KRAS–RALGDS RID binding inhibition in vitro; format: biochemical; parameters: His6-TEV (N); made in house; host or cells: BL21(DE3) Escherichia coli; TR-FRET of recombinant KRAS and RALGDS RID: scale not given here; settings: for TR-FRET of recombinant KRAS and RALGDS RID: KRAS G12V, single replicates
[2] = biological target: KRAS^G13D (Homo sapiens, UniProt P01116+P62937, G13D); assay: Cellular RAS–RAF (CRAF RBD) disruption, nano-BRET in U2OS cells; format: cell-based; settings: (95% CI)
From the text: (§1) KRAS4B, or other small GTPases, containing the indicated mutations were cloned in pNLF-N or pHTN plasmids for expression with an N-terminal nanoluciferase or HaloTag fusion, respectively. […] The following day, the cells were collected by Trypsin and reseeded in a white tissue culture-treated 96-well plate in OptiMem phenol red-free medium (Gibco) containing 4% FBS and a 1:1,000 dilution of NanoBRET 618 HaloTag ligand (Promega). For endpoint concentration response curves, vivazine nanoluciferase substrate was added to 1× concentration in OptiMem phenol red-free medium with 4% FBS. Varying concentrations of inhibitor were added and incubated for 1 or 4 h before the nano-BRET signal was measured on a Perkin Elmer Envision plate reader. For kinetic assays, endurazine nanoluciferase substrate was used in place of vivazine, and the plate was placed in a Cytation5 multi-mode reader pre-equilibrated to 37 °C and 5% CO2.

[3] = biological target: KRAS^G13C (Homo sapiens, UniProt P01116+P62937, G13C); assay: as above; format: cell-based; parameters: expressed in transfected cells; host or cells: U2OS; settings: (95% CI)
From the text: as §1

[4] = biological target: KRAS WT (Homo sapiens, UniProt P01116+P62937); assay: as above; format: cell-based; parameters: expressed in transfected cells; host or cells: U2OS; settings: (95% CI)
From the text: as §1

[5] = biological target: T2, KRAS^G12C (Homo sapiens, UniProt P01116+P62937, G12C); assay: as above; format: cell-based; parameters: expressed in transfected cells; host or cells: U2OS; settings: (95% CI)
From the text: as §1

[6] = biological target: KRAS^G12R (Homo sapiens, UniProt P01116+P62937, G12R); assay: as above; format: cell-based; parameters: expressed in transfected cells; host or cells: U2OS; settings: (95% CI)
From the text: as §1

[7] = biological target: KRAS^G12D (Homo sapiens, UniProt P01116+P62937, G12D); assay: as above; format: cell-based; parameters: expressed in transfected cells; host or cells: U2OS; settings: (95% CI)
From the text: as §1

[8] = biological target: T2, KRAS^G12C; assay: Biochemical RAS–RAF (BRAF RBD) disruption, TR-FRET; parameters: His6-TEV (N); made in house; host or cells: BL21(DE3) Escherichia coli
From the text: (§2) Time-resolved fluorescence resonance energy transfer (TR-FRET) was used as previously described to assess disruption of the interactions between wild-type RAS or the mutant oncogenic RAS proteins and the RAS-binding domain of BRAF, and to assess the induction of interactions between the RAS proteins and CYPA[12].

[9] = biological target: T1, KRAS^G12V; assay: Biochemical RAS–RAF (BRAF RBD) disruption, TR-FRET; parameters: His6-TEV (N); made in house; host or cells: BL21(DE3) Escherichia coli
From the text: as §2

[10] = tested on: Capan-1, SW620, AsPC-1, HPAC, NCI-H358, PSN1, HUPT3, HCT 116, Hs 766T, SK-MEL-30, KU1919, NCI-H1975, A375; assay: pERK (AlphaLISA) in human cancer cell lines; format: cell-based
From the text: Data points show biological duplicates normalized to vehicle control. […] Data points show biological duplicates normalized to vehicle control from 1 of 2–26 independent experiments. Source Data

[11] = tested on: RAS-less MEFs; assay: Western blots of isogenic RAS-less MEF cells expressing KRAS variants or BRAF(V600E); format: cell-based, mouse; settings: 24 h, western blot
[12] = biological target: KRAS^G12A (Homo sapiens, UniProt P01116+P62937, G12A); assay: Cellular RAS–RAF (CRAF RBD) disruption, nano-BRET in U2OS cells; format: cell-based; parameters: expressed in transfected cells; host or cells: U2OS or U2OS PPIA-KO; settings: (95% CI)
From the text: as §1

[13] = biological target: KRAS^Q61H (Homo sapiens, UniProt P01116+P62937, Q61H); assay: as above; format: cell-based; parameters: expressed in transfected cells; host or cells: U2OS or U2OS PPIA-KO; settings: (95% CI)
From the text: as §1

[14] = Body weight and tolerability of tumour bearing mice; settings: for % Body Weight Change: 10 mg/kg po qd, 10 mg/kg
Experimental: All datapoints shown, n = 3 per dose and timepoint.
Female BALB/c nude mice, NOD SCID and NSG mice 6-8 weeks old from Beijing Vital River/VR Laboratory Animal Co., LTD, Beijing AniKeeper Biotech Co., Ltd., Shanghai Sino-British SIPPR/BK Laboratory Animal Co., LTD and The Jackson Laboratory were used. Animals were housed in polycarbonate cages, in an environmentally monitored, well ventilated room maintained at a constant temperature of 20-26°C and relative humidity of 40-80%. Fluorescent lighting provided illumination approximately 12 hours per day. Each mouse was inoculated at the right flank with tumor cells (2x10^6-1x10^7) in 100-200 µL of media/PBS supplemented with Matrigel (1:1). Treatments were started when the average tumor size reached 100-250 mm^3. […] Mice on studies were weighed and tumor measurements collected twice weekly. […] For efficacy study, Animals were assigned to study groups using stratified randomization based upon their tumor volumes (n=3-10/group). […] Animals were treated for 28 days (or up to 110 for selected models) or an earlier time if tumor burden reached humane endpoint. […] Body weights were collected twice a week during the study.

For `CCn1c(-c2cc(N3CCN(C4CC4)CC3)cnc2[C@H](C)OC)c2c3cc(ccc31)-c1csc(n1)C[C@H](NC(=O)[C@H]1[C@@H]3COC[C@@H]31)C(=O)N1CCC[C@H](N1)C(=O)OCC(C)(C)C2` [RMC-7977], the “TR-FRET of recombinant KRAS and RALGDS RID” value (“TR-FRET” below) ([1]; RMC-7977 0.005 nM with CYPA) was 1.0295 and 1.03 and 1.0995 and 1.02, the “TR-FRET” value ([1]; RMC-7977 0.046 nM with CYPA) was 1.033 and 0.9862 and 0.9822 and 1.02 and the “TR-FRET” value ([1]; RMC-7977 0.412 nM with CYPA) was 0.9113 and 1.003 and 0.948 and 0.8985. For the same compound, the “TR-FRET” value ([1]; RMC-7977 1.235 nM with CYPA) was 0.868 and 0.861 and 0.9113 and 0.9277, the “TR-FRET” value ([1]; RMC-7977 3.704 nM with CYPA) was 0.6665 and 0.6727 and 0.7087 and 0.775 and the “TR-FRET” value ([1]; RMC-7977 11.111 nM with CYPA) was 0.4672 and 0.5503 and 0.4273 and 0.4677. For the same compound, the “TR-FRET” value ([1]; RMC-7977 33.333 nM with CYPA) was 0.2172 and 0.237 and 0.1963 and 0.1593, the “TR-FRET” value ([1]; RMC-7977 100.000 nM with CYPA) was 0.031 and -0.01375 and 0.0395 and 0.0045 and the IC50 ([1]; KRAS^G12V, recombinant, with CYPA) was 8 nM. The EC50 [2] was 15.4 nM, the EC50 [3] was 17.2 nM and the EC50 [4] was 34.5 nM. It also gave an EC50 [5] of 5.06 nM, an EC50 [6] of 21.2 nM and an EC50 [7] of 9.5 nM. For the same compound, the EC50 [8] was 31.8 nM, the EC50 [9] was 44 nM and the “pERK of RAS mutant and RAS WT cell lines treated with RMC-7977” value (“pERK … with RMC-7977” for short) ([10]; CAPAN1, RMC-7977 1.52 nM) was 19.123 and 19.8052. The “pERK … with RMC-7977” value ([10]; CAPAN1, RMC-7977 4.57 nM) was 1.955 and 2.566, the “pERK … with RMC-7977” value ([10]; HUPT3, RMC-7977 0.05 nM) was 94.4091 and 94.8337 and 88.9674 and 91.9384 and 90.4786 and 91.137 and the “pERK … with RMC-7977” value ([10]; HUPT3, RMC-7977 0.46 nM) was 54.494 and 62.3496 and 67.5543 and 72.6449 and 54.2163 and 63.5857. The “pERK (normalised response)” value ([10]; NCIH358, RMC-7977 0.05 nM) was 95.3351 and 101.687, the “pERK (normalised response)” value ([10]; NCIH358, RMC-7977 0.46 nM) was 100.659 and 104.04 and the “pERK (normalised response)” value ([10]; NCIH358, RMC-7977 4.12 nM) was 12.3735 and 16.2725. The “pERK (normalised response)” value ([10]; PSN1, RMC-7977 0.05 nM) was 88.9166 and 100.089, the “pERK (normalised response)” value ([10]; RMC-7977 123.46 nM, replicates) was -0.725 and -0.593 and -0.5397 and -0.3753 and -0.4309 and -0.2687 and -0.4302 and -0.02426 and 0.06955 and 0.1569 and -0.4286 and -0.3396 and -0.5772 and -0.5479 and -0.6628 and -0.5005 and -0.5749 and -0.2908 and the “pERK (normalised response)” value ([10]; RMC-7977 370.39 nM, replicates) was -0.7644 and -0.7111 and -0.5907 and -0.5768 and -0.4216 and -0.3892 and -0.6033 and -0.5758 and -0.3364 and 0.5402 and -0.5111 and -0.3801 and -0.726 and -0.7102 and -0.7981 and -0.753 and -0.6335 and -0.6222. The “pERK (normalised response)” value ([10]; RMC-7977 1111.14 nM, replicates) was -0.8316 and -0.7436 and -0.6671 and -0.6486 and -0.6046 and -0.6033 and -0.5758 and -0.3138 and -0.0744 and -0.5014 and -0.4707 and -0.7846 and -0.6967 and -0.78 and -0.7169 (2×) and -0.6921, the “pERK (normalised response)” value ([10]; RMC-7977 3333.41 nM, replicates) was -0.871 and -0.8455 and -0.7297 and -0.8432 and -0.7667 and -0.6405 and -0.6259 and -0.2555 and 0.2652 and -0.5936 and -0.3995 and -0.7395 and -0.6651 and -0.762 and -0.5906 and -0.7169 and -0.656 and the “pERK (normalised response)” value ([10]; RMC-7977 10000.00 nM, replicates) was -0.9243 and 0.3336 and -0.8571 and 0.183 and -0.9196 and -0.05096 and -0.6324 and -0.02426 and -0.4949 and 0.5774 and -0.5725 and 0.8637 and -0.8004 and 0.4058 and -0.7439 and 0.02254 and -0.7755 and 0.9604. The “pERK suppression in RAS-less MEFs” value [11] was “suppressed pERK in all KRAS-expressing cells, but not in BRAF(V600E)-expressing RAS-less MEFs”, the EC50 [12] was 30.3 nM and the EC50 [13] was 17.2 nM. The “% Body Weight Change” value ([14]; NCI-H441 tumor bearing BALB/c nude mice, day 4, individual animals) was -4.55% and -0.24% and 1.44% and 1.89% and -1.08% and 0.22% and -2.41% and 1.83%, the “% Body Weight Change” value ([14]; NCI-H441 tumor bearing BALB/c nude mice, day 7, individual animals) was -9.19% and -1.70% and 0.68% and 1.75% and -4.40% and -1.88% and -16.62% and -2.26% and the “% Body Weight Change” value ([14]; NCI-H441 tumor bearing BALB/c nude mice, day 11, individual animals) was -4.55% and -4.86% and 0.27% and 1.46% and -4.26% and -1.16% and -0.43% and 0.65%. For the same compound, the “% Body Weight Change” value ([14]; NCI-H441 tumor bearing BALB/c nude mice, day 14, individual animals) was -3.50% and -2.87% and 1.04% and 3.87% and -4.31% and -0.18% and -2.76% and -1.00%, the “% Body Weight Change” value ([14]; NCI-H441 tumor bearing BALB/c nude mice, day 18, individual animals) was -0.17% and 7.78% and -13.00% and 19.16% and -2.62% and 1.70% and -3.06% and 3.09% and the “% Body Weight Change” value ([14]; NCI-H441 tumor bearing BALB/c nude mice, day 21, individual animals) was -1.14% and -0.19% and 3.16% and 1.56% and -3.51% and 3.31% and -2.50% and 1.35%. For the same compound, the “% Body Weight Change” value ([14]; NCI-H441 tumor bearing BALB/c nude mice, day 25, individual animals) was -5.65% and 1.02% and 4.20% and 4.72% and -0.28% and 1.43% and -6.63% and 1.91%, the “% Body Weight Change” value ([14]; NCI-H441 tumor bearing BALB/c nude mice, day 28, individual animals) was -1.90% and 1.90% and 4.11% and 4.06% and 0.28% and 2.82% and -8.01% and 4.78% and the “% Body Weight Change” value ([14]; PDAC G12D tumor bearing BALB/c nude mice, day 3, individual animals) was -4.17%. For the same compound, the “% Body Weight Change” value ([14]; PDAC G12D tumor bearing BALB/c nude mice, day 7, individual animals) was -4.17%, the “% Body Weight Change” value ([14]; PDAC G12D tumor bearing BALB/c nude mice, day 14, individual animals) was -8.33% and the “% Body Weight Change” value ([14]; PDAC G12D tumor bearing BALB/c nude mice, day 17, individual animals) was -8.33%. The “% Body Weight Change” value ([14]; PDAC G12D tumor bearing BALB/c nude mice, day 21, individual animals) was -8.00% and 0.00%, the “% Body Weight Change” value ([14]; PDAC G12D tumor bearing BALB/c nude mice, day 24, individual animals) was -8.00% and the “% Body Weight Change” value ([14]; PDAC G12D tumor bearing BALB/c nude mice, day 28, individual animals) was 4.00%. The “effect on body weights” value ([14]; all 15 KRAS^G12X xenograft models, 10 mg kg^−1) was “minimal effect on body weights” and the tolerability ([14]; repeated daily administration at 10 mg kg^−1, NCI-H441 model) was “well tolerated”.
